{"source": "patent US20200323934A1", "about": "“PHARMACEUTICAL COMPOSITION AND FOOD” (Sankyo Holdings Co., Ltd., priority 2016, published 2020)", "tested_on": "CRE-dependent transcription (PKA/ERK/CREB intracellular signaling)", "test": "luciferase reporter assay of CRE-dependent gene transcription activity in plasmid-transfected PC12 cells", "assay_type": "cell-based, rat", "method": "In order to evaluate the gene transcription activity of each sample, the luciferase reporter assay was performed.\nThe luciferase assay is used to quantitatively analyze the transcription activity of a test material. In order to activate the transcription, various control sequences present in an upstream promoter of a gene are required.\nIn this embodiment, a plasmid was used in which a CRE sequence which was a control sequence activated by the PKA/ERK/CREB intracellular signaling and was present in an upstream promoter of a memory, and in which learning-related gene and a gene of a luciferase functioning as a luminescent enzyme were connected to each other.\nWhen the test material activates the CRE-dependent transcription, the luciferase gene present at a downstream side is expressed, and the expression thereof is increased, so that a luciferase protein is increased.\nPC12 cells (rat adrenal medulla pheochromocytoma derived cell line) were seeded in 96-well culture dish at a seeding density of 4.0×10^4 cells/well. Subsequently, the plasmid was transfected in the PC12 cell, and the cultivation was performed in a medium to which each of the samples was dripped. As the medium, an α-modified Dulbecco's modified Eagle's medium supplemented with 1% serum (DMEM) was used. […]"}
{"smiles": "COc1ccc(-c2cc(=O)c3c(OC)c(OC)c(OC)c(OC)c3o2)cc1OC", "note": "[Nobiletin, nobiletin]", "values": [{"measurement": "concentration at which nobiletin has an enhancing action", "setting": "in combination with Anredera cordifolia, suggested from ponkan's peel extract assumed to contain 1% nobiletin", "result": "≤ 2", "unit": "µg/mL"}, {"measurement": "concentration at which nobiletin expresses the luciferase activity", "setting": "nobiletin solution alone", "result": 2, "unit": "µg/mL"}]}
